Laboratory results: patent publication EP0173944A2, “Enhanced inhibition of yeast cell growth” (MILES INC., priority 1984, dated 1986)
Like-named read-outs stand apart in the source and are kept apart here. *1 amine or outer side, *2 acyl side, *3 side chain or, on linkers, in order; H or OH if unused. Where a SMILES comes first, the peptide text is derived from it. Bridges are numbered along the chain shown (N, C = ends). Roman numbers before positions name the chains, in order. [ ]: non-standard residue; d: D form. Actinocin(9to1) = Cc1c2oc3c(C)ccc(C(=O)[*:1])c3nc-2c(C(=O)[*:2])c(N)c1=O; NMeV = CN[C@H](C(=O)O)C(C)C; Sar = CNCC(=O)O

Experiments:
[1] = system: Candida albicans (ATCC 10231); assay: Filter disc zone-of-inhibition test of yeast growth with or without PBN in the agar overlay; format: cell-based
Protocol: (§1) A convenient method for ascertaining the inhibition of growth of yeast cells is as follows. A sample of yeast cells (about 10 7 cells) from a viable overnight culture is added to a molten agar-containing growth medium to which has been added the desired amount of PBN. The resulting suspension is mixed rapidly and then poured onto an agar plate containing a suitable growth medium. The molten agar is allowed to solidify and sterile filter discs are placed on the surface. The solution of antibiotics to be tested are then pipetted onto the discs (50 microliters per disc). The plates are incubated and "read" for antibiotic sensitivity as determined by the zone of inhibition around the disc.
(§2) Saccharomyces cerevisiae strain S288C was grown for 16 hours at 30°C in a liquid medium consisting of 1% (w/v) yeast extract, 2% (w/v) peptone, and 2% (w/v) glucose (YPD medium). One drop of cell suspension from this culture (about 5 x 10^6 to about 1 X 10 ^7 cells) was added to each of 2 tubes containing 3 ml of 0.7% agar, 1% yeast extract, 2% peptone, 2% glycerol (or alternatively 2% glucose as a carbon source) and 0.25 ml of 5 M NaCl maintained at 45-50°C to prevent the agar from solidifying. One tube contained., in addition to the above, 0.5 ml of PBN solution (4.8 A260 units) prepared as described above. The other tube served as a control. The tube contents were mixed rapidly and poured onto a Petri plate containing 25 ml of 2% agar, 1% yeast extract, 2% peptone, and 2% glycerol (YPG medium). After the agar had solidified, sterile filter disks (0.5 inch diameter) were placed on the surface of the agar and solutions of various antibiotics to be tested were pipetted onto the disks. The plates were incubated at 30°C for 48 hours and the inhibition of growth was determined by measuring the area of a zone of clearing formed around the discs (minus the area of the disc).
The procedure described in Example I was repeated with Candida albicans (ATCC 10231). Inhibition of growth of this organism by G-418, rifampicin, cycloheximide and actinomycin D in the presence and absence (control) of PBN was determined.

[2] = system: Saccharomyces cerevisiae strain S288C; assay: as above; format: cell-based; settings: for inhibition of yeast growth in relation to the carbon source: glycerol or glucose as the carbon source; for Area of Zone of Inhibition, Control / effect on yeast growth, control sample: no PBN; for Area of Zone of Inhibition, Control / Area of Zone of Inhibition, PBN (4.8 A260 units): 30°C, 48 hours; for Area of Zone of Inhibition, PBN (4.8 A260 units): with PBN 4.8 A260 units; for Area of Zone of Inhibition: rifampicin 2.5 mg/disc; for effect on yeast growth, control sample / effect on yeast growth, PBN-containing sample: kanamycin 5.0, streptomycin 2.5, chloramphenicol 0.25 mg/disc, data not shown in Table 1; for effect on yeast growth, PBN-containing sample: with PBN
Protocol: as §1, §2
The procedure described in Example I was repeated with Saccharomyces cerevisiae strain S288C except that increasing amounts of PBN were used. The rifampicin concentration on the discs was maintained at 2.5 mg/disc throughout.

[3] = no PBN, G-418 5.0, rifampicin 2.5, cycloheximide 0.5, actinomycin D 0.5 mg/disk
[4] = with PBN 3.0 A260 units per plate in YPD medium, G-418 5.0, rifampicin 2.5, cycloheximide 0.5, actinomycin D 0.5 mg/disk
[5] = YPD medium used for plating, 0.5 mg/disk in dimethylsulfoxide
[6] = YPG medium, erythromycin 0.5, G-418 5.0, rifampicin 2.5 mg/disk

Row | Compound | Area of Zone of Inhibition, Control [1, 3] [mm^2] | Area of Zone of Inhibition, PBN [1, 4] [mm^2] | inhibition of yeast growth in relation to the carbon source [2] | Area of Zone of Inhibition, Control [2, 6] [mm^2] | Area of Zone of Inhibition, PBN (4.8 A260 units) [2, 6] [mm^2] | effect on yeast growth, control sample [2] | effect on yeast growth, PBN-containing sample [2] | also measured
1 | Cc1c2oc3c(C)ccc(C(=O)N[C@@H]4C(=O)N[C@H](C(C)C)C(=O)N5CCC[C@H]5C(=O)N(C)CC(=O)N(C)[C@@H](C(C)C)C(=O)O[C@@H]4C)c3nc-2c(C(=O)N[C@@H]2C(=O)N[C@H](C(C)C)C(=O)N3CCC[C@H]3C(=O)N(C)CC(=O)N(C)[C@@H](C(C)C)C(=O)O[C@@H]2C)c(N)c1=O [Actinomycin D] (I: T[dV]P[Sar][NMeV] / II: T[dV]P[Sar][NMeV]; ester I:1-I:C, II:1-II:C; linker I:N-II:N via Actinocin(9to1)) | <3 | 452 | exhibited inhibition of yeast growth regardless of the carbon source | – | – | – | – | Area of Zone of Inhibition, Control [2, 5]: <3 mm^2; Area of Zone of Inhibition, PBN (4.8 A260 units) [2, 5]: 314 mm^2
2 | C[C@@H]1C[C@@H]([C@H](O)CC2CC(=O)NC(=O)C2)C(=O)[C@@H](C)C1 [Cycloheximide] | – | – | – | – | – | – | – | Area of Zone of Inhibition, Control [1]: <3 mm^2; Area of Zone of Inhibition, PBN [1]: 64 mm^2
3 | CC[C@H]1OC(=O)[C@H](C)[C@@H](O[C@H]2C[C@@](C)(OC)[C@@H](O)[C@H](C)O2)[C@H](C)[C@@H](O[C@@H]2O[C@H](C)C[C@H](N(C)C)[C@H]2O)[C@](C)(O)C[C@@H](C)C(=O)[C@H](C)[C@@H](O)[C@]1(C)O [Erythromycin] | – | – | effective in this test system only when glycerol (rather than glucose) is used as the carbon source | 80 | 227 | – | – | –
4 | CN[C@@H]1[C@@H](O)[C@@H](O[C@@H]2[C@@H](O)[C@H](O[C@H]3O[C@H]([C@@H](C)O)[C@@H](O)[C@H](O)[C@H]3N)[C@@H](N)C[C@H]2N)OC[C@]1(C)O [G-418] | 20 | 346 | exhibited inhibition of yeast growth regardless of the carbon source | 113 | 490 | – | – | –
5 | CO[C@H]1/C=C/O[C@@]2(C)Oc3c(C)c(O)c4c(O)c(c(/C=N/N5CCN(C)CC5)c(O)c4c3C2=O)NC(=O)/C(C)=C\C=C\[C@H](C)[C@H](O)[C@@H](C)[C@@H](O)[C@@H](C)[C@H](OC(C)=O)[C@@H]1C [Rifampicin] | <3 | 3 | – | <3 | 95 | – | – | Area of Zone of Inhibition ([2]; PBN 0.0 A260 units): 0 mm^2; Area of Zone of Inhibition ([2]; PBN 1.0 A260 units): 3.0 mm^2; Area of Zone of Inhibition ([2]; PBN 2.0 A260 units): 20.0 mm^2; Area of Zone of Inhibition ([2]; PBN 3.0 A260 units): 38.5 mm^2; Area of Zone of Inhibition ([2]; PBN 4.0 A260 units): 38.5 mm^2; Area of Zone of Inhibition ([2]; PBN 5.0 A260 units): 50.0 mm^2; Area of Zone of Inhibition ([2]; PBN 6.0 A260 units): 64.0 mm^2; Area of Zone of Inhibition ([2]; PBN 7.0 A260 units): 78.5 mm^2; Area of Zone of Inhibition ([2]; PBN 8.0 A260 units): 71.0 mm^2; Area of Zone of Inhibition ([2]; PBN 9.0 A260 units): 78.5 mm^2; Area of Zone of Inhibition ([2]; PBN 10.0 A260 units): 95.0 mm^2
6 | O=C(N[C@H](CO)[C@H](O)c1ccc([N+](=O)[O-])cc1)C(Cl)Cl [chloramphenicol] | – | – | – | – | – | no effect | no effect | –
7 | NC[C@H]1O[C@H](O[C@H]2[C@H](O)[C@@H](O[C@H]3O[C@H](CO)[C@@H](O)[C@H](N)[C@H]3O)[C@H](N)C[C@@H]2N)[C@H](O)[C@@H](O)[C@@H]1O [kanamycin] | – | – | – | – | – | no effect | no effect | –
8 | [H]/N=C(/N)N[C@H]1[C@H](O)[C@@H](O)[C@H](O[C@@H]2O[C@@H](C)[C@](O)(C=O)[C@H]2O[C@@H]2O[C@@H](CO)[C@H](O)[C@@H](O)[C@@H]2NC)[C@@H](N/C(N)=N\[H])[C@@H]1O [streptomycin] | – | – | – | – | – | no effect | no effect | –
